Measurements: publication PMC3254698 (Bioorganic & medicinal chemistry letters, 2008)

Target: presenilin-1 (Homo sapiens, UniProt P49768)
Format: biochemical

- IC50: 0.6 nM
Structure (SMILES): CC(C)C[C@H](NC(=O)[C@H](Cc1ccccc1)C[C@@H](O)[C@H](Cc1ccc(C(=O)c2ccccc2)cc1)NC(=O)OC(C)(C)C)C(=O)N[C@@H](Cc1ccccc1)C(=O)NCCCCCNC(=O)CCCC[C@@H]1SC[C@@H]2NC(=O)N[C@@H]21 [compound 3]
